For data set [1], the target named is T1, Hsp90 (Homo sapiens, UniProt P07900).
T1 construct: purchased Stressgen SPP-776
Description: Fluorescence Polarization (FP) binding, GM-BODIPY displacement from Hsp90. To be noted: GM-BODIPY tracer, 4° C. for 4 hours. The method, then: GM-BODIPY (PerkinElmer, CUSN60342000MG) was previously dissolved in DMSO to obtain 10 mM stock solutions and kept at −20° C. until use.
Hsp90 (Stressgen, SPP-776), was previously dissolved in assay buffer (HFB) to form 2.2 μM stock solutions and kept at −80° C. until use.
The compounds were previously dissolved in DMSO to obtain stock solutions and kept at −20° C. The day of experiment, the compounds were prepared by serial dilutions in assay buffer (HFB) containing 20 mM HEPES (K) pH 7.3, 50 mM KCl, 5 mM MgCl2, 20 mM Na2MoO4 and 0.01% NP40. Before each use, 0.1 mg/ml Bovine Gamma globulin and 2 mM DTT were freshly added.
Fluorescence Polarization (FP) was performed in Opti-Plate™-96F well plates (Perkin Elmer, Zaventem, Belgium) using a plate reader (Wallac Envision 2101 multilabel reader, Perkin Elmer, Zaventem, Belgium). To evaluate the binding affinity of the molecules, 50 μl of the GM-BODIPY solution (100 nM) were added to 125 nM of Hsp90 in the presence of 5 μl of the test compounds at increasing concentrations. The plate was mixed on a shaker at 4° C. for 4 hours, and the FP values in mP (millipolarization units) were recorded. The IC50 values were calculated as the inhibitor concentration where 50% of the tracer is displaced; each data point is the result of the average of triplicate wells, and was determined from a plot using nonlinear least-squares analysis. Curve fitting was performed using
Prism GraphPad software program (GraphPad software, Inc., San Diego, Calif.).
For orientation: Fluorescence polarisation rises when a labelled molecule tumbles more slowly, as on binding a larger partner.

Data set [2] has as its system MiaPaCa2 pancreas. Description: Sulphorodamine B test at single concentration, MiaPaCa2. Particulars: Homo sapiens, MIA PaCa-2; 500 nM, 72 h. The class given is cell-based. Here is the method: (§1) The antiproliferative activity of novel Hsp90 inhibitors was also evaluated on various cancerous cell lines by means of the sulphorodamine B test (i.e., NCI-H460 non-small cell lung carcinoma, A431 epidermoid, A2780 ovarian, MDA-MB436 triple-negative breast, U87MG glioblastoma, A498 renal, HCT116 colon, MeWo melanoma, MiaPaCa2 pancreas, HeLa cervix uteri, NB4 promyelocytic leukemia). NCI-H460, A431, MDA-MB436, A2780, A498, HeLa, NB4 tumour cells were grown in RPMI 1640 containing 10% fetal bovine serum (i.e., FBS from GIBCO), L-glutamine, and 50 μg/ml gentamycin sulfate.
MiaPaCa2 cells were cultured in DMEM medium containing 10% FBS, L-glutamine, and 50 μg/ml gentamycin sulfate.
(§2) All cell lines were maintained in a 37° C. incubator with saturated humidity and an atmosphere containing 95% air and 5% CO2, and were sub-cultured every 2-3 days. Tumour cells were seeded in 96-well tissue culture plates at approximately 10% confluence and were allowed to attach and recover for 24 h.
(§3) Varying concentrations of the drugs were then added to each well to calculate their IC50 value (the concentration which inhibits the 50% of cell survival). The plates were incubated at 37° C. for 72 h. At the end of the treatment, the plates were washed by remotion of the supernatant and addition of PBS 3 times. 200 μl PBS and 50 μl of cold 80% trichloroacetic acid (TCA) were added. The plates were incubated on ice for at least 1 h. TCA was removed, the plates were washed 3 times by immersion in distilled-water and dried on paper and at 40° C. for […]. Then 200 μl of 0.4% sulphorodamine B in 1% acetic acid were added. The plates were incubated at room temperature for 30 min. Sulphorodamine B was removed, the plates were washed by immersion in 1% acetic acid for 3 times, then they were dried on paper and at 40° C. for 5 min. Then, 200 μl Tris 10 mM were added, the plates were kept under stirring for 20 min. The cell survival was determined as optical density by a Multiskan […] at 540 nm. The amount of cells killed was calculated as the percentage decrease in sulphorodamine B binding compared with control cultures.
(§4) The other cell lines were screened against one single concentration of the various inhibitors (i.e., 500 nM), all experiments being made in octuplicate, following the protocol described at example 35. Since NB4 cell line was grown in suspension, a further step of centrifugation (i.e., 1600 g for 10 min) was added after the 72 hour incubation period.

Data set [3] concerns A431 epidermoid. Put plainly: Sulphorodamine B test at single concentration, A431. Particulars: Homo sapiens, A-431; 500 nM, 72 h. It is filed as cell-based. The method, then:
as §1, §2, §3, §4

Data set [4] concerns HCT116 colon. Description: Sulphorodamine B test at single concentration, HCT116. Particulars: Homo sapiens, HCT-116; 500 nM, 72 h. The class given is cell-based. Here is the method:
as §1
HCT116 cells were cultured in McCoy's medium containing 10% FBS, L-glutamine, and 50 μg/ml gentamycin sulfate.
as §2, §3, §4

For data set [5], the system named is A498 renal. Put plainly: Sulphorodamine B test at single concentration, A498. It is filed as cell-based. To be noted: Homo sapiens, 500 nM, 72 h. Here is the method:
as §1, §2, §3, §4

In data set [6] the test system is NB4 promyelocytic leukemia. Put plainly: Sulphorodamine B test at single concentration, NB4. The class given is cell-based. Particulars: 500 nM, 72 h, suspension cells. Here is the method: as §1, §2, §3, §4
In data set [7] the test system is U87MG glioblastoma. Description: Sulphorodamine B test at single concentration, U87MG. The class given is cell-based. Particulars: Homo sapiens, U-87 MG; 500 nM, 72 h. Here is the method: as §1
(§5) MeWo and U87-MG cells were cultured in Eagle's Minimum Essential Medium (i.e., EMEM) containing 10% FBS, L-glutamine, 1 mM sodium pyruvate, 0.1 mM non-essential amino acids, 1.5 g/l sodium bicarbonate, and 50 μg/ml gentamycin sulphate.
as §2, §3, §4

The subject of data set [8] is MeWo melanoma. Put plainly: Sulphorodamine B test at single concentration, MeWo. It is filed as cell-based. Particulars: Homo sapiens, 500 nM, 72 h. The method, then: as §1, §5, §2, §3, §4
The subject of data set [9] is A2780 ovarian. Put plainly: Sulphorodamine B test at single concentration, A2780. It is filed as cell-based. To be noted: Homo sapiens, 500 nM, 72 h. The method, then:
as §1, §2, §3, §4

Data set [10] relates to HeLa cervix uteri. Put plainly: Sulphorodamine B test at single concentration, HeLa. The class given is cell-based. Particulars: Homo sapiens, 500 nM, 72 h. The method, then: as §1, §2, §3, §4
Data set [11] deals with MDA-MB436 triple-negative breast. Put plainly: Sulphorodamine B test at single concentration, MDA-MB436. The class given is cell-based. Particulars: Homo sapiens, MDA-MB-436; 500 nM, 72 h. The method, then: as §1, §2, §3, §4
For data set [12], the system named is NCI-H460 non-small cell lung carcinoma. Put plainly: Cytotoxicity assay, sulphorodamine B test, NCI-H460. The class given is cell-based. To be noted: for IC50: Homo sapiens, NCI-H460, 72 h, sulphorodamine B. The method, then: as §1, §2, §3

As usually defined, the IC50 is the concentration needed to halve the response being measured. A high value points to weaker potency in that assay. Usually inhibition stands for the share of the control response that was lost under treatment.

Take `CCNC(=O)c1nnn(-c2cc(C(C)C)c(O)cc2O)c1-c1ccc(CN2CCCC2)cc1` [Example 21, 1-(2,4-dihydroxy-5-isopropyl-phenyl)-5-(4-pyrrolidin-1-ylmethyl-phenyl)-1H-[1,2,3]triazole-4-carboxylic acid ethylamide]: in data set [1], the IC50 is < 50 nM. The inhibition at 0.5 µM in data set [2], in data set [3], in [4], in data set [5], in [6] and in data set [7] was ≥ 50% each time. The inhibition at 0.5 µM in [8], in data set [9], in data set [10] and in data set [11] was ≥ 50% in each case.

`CCNC(=O)c1nnn(-c2cc(C(C)C)c(O)cc2O)c1-c1ccc(CN2CC[C@H](N(C)C)C2)cc1` [Example 20, 1-(2,4-dihydroxy-5-isopropyl-phenyl)-5-[4-((S)-3-dimethylamino-pyrrolidin-1-ylmethyl)-phenyl]-1H-[1,2,3]triazole-4-carboxylic acid ethylamide]: the half-inhibitory concentration (IC50) in [1] and in [12] was < 50 nM each time. In addition, the inhibition at 0.5 µM in data set [2] was ≥ 50%; in data set [3] it was ≥ 50%; in data set [4] it was ≥ 50%; in data set [5], 30 to 50%; in data set [6], ≥ 50%; in data set [7], ≥ 50%. The inhibition at 0.5 µM in [8], in data set [9], in data set [10] and in data set [11] was ≥ 50% in each case.

For the compound `Oc1cc(O)c(-n2nncc2-c2ccc(F)cc2)cc1Cl` [Example 33, 4-chloro-6-[5-(4-fluoro-phenyl)-[1,2,3]triazol-1-yl]-benzene-1,3-diol, reference compound], the IC50 in data set [1] is > 500 nM; in data set [12], > 1000 nM. The inhibition at 0.5 µM in data set [2], in data set [3], in [4], in data set [5], in data set [6] and in [7] was < 30% throughout. Also, the inhibition at 0.5 µM in data set [8], in data set [9], in [10] and in data set [11] was < 30% in each case. Moreover, the “cytotoxic activity against NCI-H460 NSCLC (in words)” value in data set [12] is reported as “totally deprived of any interesting biological activity”.

As for `CCNC(=O)c1nnn(-c2cc(C(C)C)c(O)cc2O)c1-c1ccc(CN2CCN(C)CC2)cc1` [Example 11, 1-(2,4-dihydroxy-5-isopropyl-phenyl)-5-[4-(4-methyl-piperazin-1-ylmethyl)-phenyl]-1H-[1,2,3]triazole-4-carboxylic acid ethylamide], the IC50 in data set [1] and in data set [12] was < 50 nM throughout. Further, the inhibition at 0.5 µM in data set [2], in data set [3], in data set [4], in [5], in data set [6] and in [7] was ≥ 50% in each case. For the same compound, the inhibition at 0.5 µM in data set [8], in data set [9], in data set [10] and in data set [11] was ≥ 50% throughout.

In the case of `CC(C)c1cc(-n2nncc2-c2ccc(CN3CCCC(O)C3)cc2)c(O)cc1O` (stereo not shown) [Example 2, 4-{5-[4-(3-hydroxy-piperidin-1-ylmethyl)-phenyl]-[1,2,3]triazol-1-yl}-6-isopropyl-benzene-1,3-diol], the IC50 in data set [1] and in [12] was < 50 nM each time. Also, the inhibition at 0.5 µM in data set [2] was ≥ 50%; in data set [3], ≥ 50%; in data set [4] it was ≥ 50%; in data set [5], 30 to 50%; in [6] it was ≥ 50%; in data set [7], 30 to 50%. Besides, the inhibition at 0.5 µM in [8], in [9], in [10] and in [11] was ≥ 50% in each case.

As for `CCNC(=O)c1nnn(-c2cc(C(C)C)c(O)cc2O)c1-c1ccc(Cn2ccnc2)cc1` [Example 22, 1-(2,4-dihydroxy-5-isopropyl-phenyl)-5-(4-imidazol-1-ylmethyl-phenyl)-1H-[1,2,3]triazole-4-carboxylic acid ethylamide], the IC50 in data set [1] was < 50 nM. Further, the inhibition at 0.5 µM in data set [2], in data set [3], in data set [4], in data set [5], in [6] and in data set [7] was ≥ 50% in each case. For the same compound, the inhibition at 0.5 µM in [8], in data set [9], in [10] and in [11] was ≥ 50% each time.

For the compound `CCNC(=O)c1nnn(-c2cc(C(C)C)c(O)cc2O)c1-c1ccc(CN2CCC(N(C)C)CC2)cc1` [Example 13, 1-(2,4-dihydroxy-5-isopropyl-phenyl)-5-[4-(4-dimethylamino-piperidin-1-ylmethyl)-phenyl]-1H-[1,2,3]triazole-4-carboxylic acid ethylamide], the figures for the IC50 in [1] and in [12] were < 50 nM and 100 to 500 nM, respectively. Moreover, the inhibition at 0.5 µM in data set [2] was ≥ 50%; in data set [3], ≥ 50%; in data set [4], ≥ 50%; in [5] it was 30 to 50%; in data set [7], ≥ 50%; in [8], ≥ 50%. Moreover, the inhibition at 0.5 µM in [9] is ≥ 50%; in data set [10], 30 to 50%; in data set [11], ≥ 50%.

For the origin of these results see patent US9302998B2, “Aryl triazole compounds with antitumoural activity” (SIGMA-TAU RESEARCH SWITZERLAND S.A., priority 2010, dated 2016).
